≈ marks a conversion by molar mass, not a printed value.

The test system of the first assay is S. aureus. The assay can be described thus: Minimum inhibitory concentrations (MICs) for S. aureus of exemplary compounds (Table 2). Format: cell-based. Particulars: Staphylococcus aureus, minimum inhibitory concentrations for S. aureus; read-out: MICs. A digest of the protocol: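 Growth of S. aureus in media with or without compound, by broth microdilution in microtiter trays following NCCLS M7-A5 guidelines. Values are MICs in μg/mL.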
As to `CC(=O)NC[C@H]1CN(c2ccc(-c3ccc([C@H](CO)n4ccnn4)cc3)c(F)c2)C(=O)O1` [Compound 1073, N-{3-[2-Fluoro-4′-(2-hydroxy-1-(R)-[1,2,3]triazol-1-yl-ethyl)-biphenyl-4-yl]-2-oxo-oxazolidin-5-(S)-ylmethyl}-acetamide], the MIC is 1 µg/mL (≈ 2.28 µM). On the same count and under the same terms, next, `CC(=O)NC[C@H]1CN(c2ccc(-c3ccc([C@H](CO)N4CCCC(F)(F)C4)cc3)c(F)c2)C(=O)O1` [Compound 1074, N-(3-{4′-[1-(R)-(3,3-Difluoro-piperidin-1-yl)-2-hydroxy-ethyl]-2-fluoro-biphenyl-4-yl}-2-oxo-oxazolidin-5-(S)-ylmethyl)-acetamide]: 4 µg/mL (≈ 8.14 µM); `CC(=O)NC[C@H]1CN(c2ccc(-c3ccc([C@H](O)CN4CCCC(F)(F)C4)cc3)c(F)c2)C(=O)O1` [Compound 1075, N-(3-{4′-[2-(3,3-Difluoro-piperidin-1-yl)-1-(S)-hydroxy-ethyl]-2-fluoro-biphenyl-4-yl}-2-oxo-oxazolidin-5-(S)-ylmethyl)-acetamide]: 2 µg/mL (≈ 4.07 µM). Consider `CC(=O)NC[C@H]1CN(c2ccc(-c3ccc(Cn4cccn4)nc3)c(F)c2)C(=O)O1` [Compound 1076, N-{3-[3-Fluoro-4-(6-pyrazol-1-ylmethyl-pyridin-3-yl)-phenyl]-2-oxo-oxazolidin-5-(S)-ylmethyl}-acetamide], for which the MIC is 1 µg/mL (≈ 2.44 µM).

On to `CC(=O)NC[C@H]1CN(c2ccc(-c3ccc(Cn4ccnc4)nc3)c(F)c2)C(=O)O1` [Compound 1077, N-{3-[3-Fluoro-4-(6-imidazol-1-ylmethyl-pyridin-3-yl)-phenyl]-2-oxo-oxazolidin-5-(S)-ylmethyl}-acetamide], for which the MIC was found to be 4 µg/mL (≈ 9.77 µM). On the same count and under the same terms, in the case of `CSC1=NCCN1Cc1ccc(-c2ccc(N3C[C@H](CNC(C)=O)OC3=O)cc2F)cc1` [Compound 1078, N-{3-[2-Fluoro-4′-(2-methylsulfanyl-4,5-dihydro-imidazol-1-ylmethyl)-biphenyl-4-yl]-2-oxo-oxazolidin-5-(S)-ylmethyl}-acetamide] it was 2 µg/mL (≈ 4.38 µM). With `CSc1nnnn1Cc1ccc(-c2ccc(N3C[C@H](CNC(C)=O)OC3=O)cc2F)cc1` [Compound 1079, N-{3-[2-Fluoro-4′-(5-methylsulfanyl-tetrazol-1-ylmethyl)-biphenyl-4-yl]-2-oxo-oxazolidin-5-(S)-ylmethyl}-acetamide], the MIC was 2 µg/mL (≈ 4.38 µM).

With `CSc1nnn(Cc2ccc(-c3ccc(N4C[C@H](CNC(C)=O)OC4=O)cc3F)cc2)n1` [Compound 1080, N-{3-[2-Fluoro-4′-(5-methylsulfanyl-tetrazol-2-ylmethyl)-biphenyl-4-yl]-2-oxo-oxazolidin-5-(S)-ylmethyl}-acetamide], the MIC was 0.25 µg/mL (≈ 0.548 µM).

In the case of `CCSc1nnnn1Cc1ccc(-c2ccc(N3C[C@H](CNC(C)=O)OC3=O)cc2F)cc1` [Compound 1081, N-{3-[4′-(5-Ethylsulfanyl-tetrazol-1-ylmethyl)-2-fluoro-biphenyl-4-yl]-2-oxo-oxazolidin-5-(S)-ylmethyl}-acetamide], the MIC came to 2 µg/mL (≈ 4.25 µM).

With `CCSc1nnn(Cc2ccc(-c3ccc(N4C[C@H](CNC(C)=O)OC4=O)cc3F)cc2)n1` [Compound 1082, N-{3-[4′-(5-Ethylsulfanyl-tetrazol-2-ylmethyl)-2-fluoro-biphenyl-4-yl]-2-oxo-oxazolidin-5-(S)-ylmethyl}-acetamide], the MIC worked out at 0.5 µg/mL (≈ 1.06 µM).

Consider `CC(=O)NC[C@H]1CN(c2ccc(-c3ccc(Cn4nnnc4Cl)cc3)c(F)c2)C(=O)O1` [Compound 1083, N-{3-[4′-(5-Chloro-tetrazol-1-ylmethyl)-2-fluoro-biphenyl-4-yl]-2-oxo-oxazolidin-5-(S)-ylmethyl}-acetamide], for which the MIC is 0.5 µg/mL (≈ 1.12 µM). The same measure, in the same setting: next, `O=C1O[C@@H](Cn2ccnn2)CN1c1ccc(-c2ccc(Cn3ccnc3)cc2)c(F)c1` [Compound 1084, 3-(2-Fluoro-4′-imidazol-1-ylmethyl-biphenyl-4-yl)-5-(R)-[1,2,3]triazol-1-ylmethyl-oxazolidin-2-one]: 0.25 µg/mL (≈ 0.597 µM); `O=C1O[C@@H](Cn2ccnn2)CN1c1ccc(-c2ccc(Cn3cccn3)cc2)c(F)c1` [Compound 1085, 3-(2-Fluoro-4′-pyrazol-1-ylmethyl-biphenyl-4-yl)-5-(R)-[1,2,3]triazol-1-ylmethyl-oxazolidin-2-one]: 0.5 µg/mL (≈ 1.19 µM); `CC(=O)NC[C@H]1CN(c2ccc(-c3ccc(CN4CC[C@H](O)C4)cc3)c(F)c2)C(=O)O1` [Compound 1087, N-{3-[2-Fluoro-4′-(3-(S)-hydroxy-pyrrolidin-1-ylmethyl)-biphenyl-4-yl]-2-oxo-oxazolidin-5-(S)-ylmethyl}-acetamide]: 4 µg/mL (≈ 9.36 µM). With `CC(=O)NC[C@H]1CN(c2ccc(-c3ccc(CN4CC[C@@H](O)C4)cc3)c(F)c2)C(=O)O1` [Compound 1088, N-{3-[2-Fluoro-4′-(3-(R)-hydroxy-pyrrolidin-1-ylmethyl)-biphenyl-4-yl]-2-oxo-oxazolidin-5-(S)-ylmethyl}-acetamide], the MIC came out at 4 µg/mL (≈ 9.36 µM).

As for `CC(=O)NC[C@H]1CN(c2ccc(-c3ccc(CN4CCC4)cc3)c(F)c2)C(=O)O1` [Compound 1090, N-[3-(4′-Azetidin-1-ylmethyl-2-fluoro-biphenyl-4-yl)-2-oxo-oxazolidin-5-(S)-ylmethyl]-acetamide], the MIC was determined as 2 µg/mL (≈ 5.03 µM). Regarding `CC(=O)NC[C@H]1CN(c2ccc(-c3ccc(CN4CC[C@@H](N)C4)cc3)c(F)c2)C(=O)O1` [Compound 1091, N-{3-[4′-(3-(R)-Amino-pyrrolidin-1-ylmethyl)-2-fluoro-biphenyl-4-yl]-2-oxo-oxazolidin-5-(S)-ylmethyl}-acetamide], the MIC was found to be 2 µg/mL (≈ 4.69 µM). For `CC(=O)NC[C@H]1CN(c2ccc(-c3ccc(CN4CC[C@H](N)C4)cc3)c(F)c2)C(=O)O1` [Compound 1092, N-{3-[4′-(3-(S)-Amino-pyrrolidin-1-ylmethyl)-2-fluoro-biphenyl-4-yl]-2-oxo-oxazolidin-5-(S)-ylmethyl}-acetamide], the MIC was determined as 4 µg/mL (≈ 9.38 µM). `CC(=O)NC[C@H]1CN(c2ccc(-c3ccc(CN4CCC(F)CC4)cc3)c(F)c2)C(=O)O1` [Compound 1094, N-{3-[2-Fluoro-4′-(4-fluoro-piperidin-1-ylmethyl)-biphenyl-4-yl]-2-oxo-oxazolidin-5-(S)-ylmethyl}-acetamide]: the MIC turned out to be 1 µg/mL (≈ 2.25 µM). The same measure, in the same setting: next, `CC(=O)NC[C@H]1CN(c2ccc(-c3ccc(CN4CCCC(F)(F)C4)cc3)c(F)c2)C(=O)O1` [Compound 1097, N-{3-[4′-(3,3-Difluoro-piperidin-1-ylmethyl)-2-fluoro-biphenyl-4-yl]-2-oxo-oxazolidin-5-(S)-ylmethyl}-acetamide]: 2 µg/mL (≈ 4.33 µM); `CC(=O)NC[C@H]1CN(c2ccc(-c3ccc(Cn4cnc5c(NCCCF)ncnc54)cc3)c(F)c2)C(=O)O1` [Compound 1098, N-(3-{2-Fluoro-4′-[6-(3-fluoro-propylamino)-purin-9-ylmethyl]-biphenyl-4-yl}-2-oxo-oxazolidin-5-(S)-ylmethyl)-acetamide]: 2 µg/mL (≈ 3.73 µM).

The assay is the same for the next values; noted with them: Staphylococcus aureus, read-out: MICs.
Turning to `CC(=O)NC[C@H]1CN(c2ccc(-c3ccc(Cc4c[nH]cn4)cc3)c(F)c2)C(=O)O1` [Compound 1086, N-{3-[2-Fluoro-4′-(1H-imidazol-4-ylmethyl)-biphenyl-4-yl]-2-oxo-oxazolidin-5-(S)-ylmethyl}-acetamide], the MIC was determined as 0.5 µg/mL (≈ 1.22 µM).

Values taken from patent US10471046B2, “Method for treating, preventing, or reducing the risk of skin infection” (Melinta Subsidiary Corp., priority 2014, dated 2019).
